# Measured values published in patent US20070254907A1, “COMPOSITIONS AND METHODS FOR CONTROLLING INFESTATION” (HATCHTECH PTY LTD, priority 2003, published 2007).
# Entries after “also recorded” stand apart in the source; their conditions may differ.
# Experiments:
# [1] = system: lice eggs; assay: whole plant or invertebrate; type: in vivo; conditions: Lice (L)
# [2] = system: Plutella xylostella eggs; assay: whole plant or invertebrate; type: in vivo; conditions: for Ovicidal activity % / Activity class 0 = inactive 1 = low 2 = med 3 = high: Plutella (P); for % Inhibition: relative to controls
# Experimental: The ovicidal efficacy of 2-acetyl-1-tetralone was also tested against Plutella eggs.
# [3] = system: Plutella xylostella eggs; assay: Reversal of inhibition of Plutella egg hatching by added FeSO4; type: in vivo
# Experimental: (§1) Within 24 hours of collection the following experimental design was chosen. Batches of eggs were exposed to 10 mM 6,6′-dimethyl-2,2′-dipyridyl for 2 seconds while additional batches of eggs were exposed to the solvent only (Methanol) for 2 seconds. All batches of eggs were allowed to air dry for 20 minutes at room temperature. The eggs were then given a 2 second exposure to FeSO4 at either 10, 5 or 1 mM, air dried and put in the incubator at 24° C. and allowed to hatch over the next 6 days. In addition, a positive control of 10 mM 6,6′-dimethyl-2,2′-dipyridyl was set up in which eggs were exposed to this compound for 2 seconds, air dried and placed in the incubator.
# as §1, with “10 mM 5,5′-dimethyl-2,2′-dipyridyl for 2” for “10 mM 6,6′-dimethyl-2,2′-dipyridyl for 2”, “FeSO4 at 10, 5” for “FeSO4 at either 10, 5”, “put in an incubator at” for “put in the incubator at”, “of 10 mM, 5,5′-dimethyl-2,2′-dipyridyl was set” for “of 10 mM 6,6′-dimethyl-2,2′-dipyridyl was set”
# [4] = system: B. ovis eggs; assay: Egg hatching in Bovicola ovis; type: in vivo; conditions: 10 mM; for Number hatched in different replicates: 10 eggs per replicate; for % Inhibition: in comparison to the controls; for Number unhatched: per replicate
# Experimental: B. ovis eggs were collected from the wool of sheep that were infested with this parasite. The eggs were collected using forceps and with the aid of a dissecting microscope and placed in 24 well tissue culture plates in duplicate lots of 10 eggs per replicate. The eggs were then exposed to either methanol alone (control) or the test compounds for either 10 minutes or 1 minute before being removed from the wells and placed into individual glass vials containing a diet at the base of the tube. The tubes were placed in plastic containers containing a salt solution (to keep humidity constant at 68%) and the containers maintained at a temperature 32° C. The eggs were monitored for hatching over the following 12 days and % hatch inhibition determined in comparison to the controls.
# [5] = system: house dust mite Dermatophagoides spp; assay: House dust mite counts on treated filter paper; type: in vivo; conditions: over the 2 week period, 25° C., 75% RH
# Experimental: A filter paper (90 mm diameter) was taken and placed in a Petri dish of the same dimensions. The filter paper was then wetted throughout with the test compound, using a small air pump sprayer. The wetted filter paper was then allowed to dry in free flowing air. 200 mg dust mite medium, containing roughly 500 mites/g, was placed on the filter paper and the number of mites counted under a microscope. The arena was then left for 2 weeks on an incubator at 25° C. and 75% RH. After 2 weeks the number of mites in the arena was counted for a second time. This experiment was repeated 3 times with the test compound and a further 3 times using water as a control.
# [6] = system: Lice (L) and Plutella (P) eggs; conditions: Lice (L) and Plutella (P)
# [7] = system: Helicoverpa armigera eggs; assay: Egg hatching of Helicoverpa armigera; conditions: 10 mM
# Experimental: A range of concentrations were made up in water and the eggs placed in the solutions for approximately 2-10 seconds. The eggs which had been laid on cloth were then blotted dry and placed in an incubator at 26° C. for 3-4 days until hatch. Hatch rates were then assessed compared to a water only treated control (FIG. 5).
# The compound was dissolved in 100% diethoxyglycol and diluted to a final concentration of 1% in water.
# Several hundred Helicoverpa armigera eggs (Tatura×Toowoomba strains) were collected, that had been laid on fine mesh cloth over a 24 hour period.
# Batches of Helicoverpa eggs were exposed to a specific inhibitor solution for between 2-10 seconds the excess solution drained by blotting with dry tissue paper. The egg masses were then placed in a humid box at 25 degrees until egg hatch. Control eggs were exposed to absolute methanol as described above. At day 6 post laying the eggs were assessed from the different treatments and the percentage of egg hatch determined relative to the control as shown in Table 12.
# Batches of Helicoverpa eggs were then exposed to a specific inhibitor solution for between 2-10 seconds the excess solution drained by blotting with dry tissue paper. The egg masses were then placed in a humid box at 25° C. until egg hatch. Control eggs were exposed to absolute methanol as described above. At day 6 post laying the eggs were assessed from the different treatments and the percentage of egg hatch determined relative to the control as shown in Table 13.
# [8] = Table 10, eggs laid on cloth, 1 mM
# [9] = Table 10, eggs laid on cloth, 10 mM
# [10] = Table 11, eggs laid on parafilm, 1 mM
# [11] = Table 11, eggs laid on parafilm, 10 mM
# [12] = 10 mM chelator followed by 2 second exposure to 1 mM FeSO4
# [13] = 10 mM chelator followed by 2 second exposure to 5 mM FeSO4
# [14] = 10 mM chelator followed by 2 second exposure to 10 mM FeSO4
# [15] = 10 mM chelator followed by 2 second exposure to MEOH
# [16] = 10 mM chelator, 2 s, (+ve) control without second exposure
smiles,measurement,setting,value
"Cc1ccc(-c2ccc(C)cn2)nc1 [5,5′-dimethyl-2,2′-dipyridyl]",Ovicidal activity %,[1]; 30 mM,100.00%
same,Activity class 0 = inactive 1 = low 2 = med 3 = high,[1]; listed as of 30 mM,2 (a pLD50 value between 3 and 4 is considered moderately active (Class 2))
same,effect on egg hatching of Plutella xylostella (words),[2]; 10 and 1 mM,significantly inhibit egg hatching
same,Ovicidal activity %,[2]; 0.1 mM,57.00%
same,Ovicidal activity %,[2]; 1 mM,98.00%
same,Activity class 0 = inactive 1 = low 2 = med 3 = high,[2]; listed as of 0.1 mM,3 (a pLD50 greater than 4 is considered strongly active (Class 3))
same,Activity class 0 = inactive 1 = low 2 = med 3 = high,[2]; listed as of 1 mM,3 (a pLD50 greater than 4 is considered strongly active (Class 3))
same,Number hatched,[2]; [8],5
same,Number unhatched,[2]; [8],22
same,% Inhibition,[2]; [8],78%
same,Number hatched,[2]; [9],0
same,Number unhatched,[2]; [9],21
same,% Inhibition,[2]; [9],100%
same,Number hatched,[2]; [10],18
same,Number unhatched,[2]; [10],133
same,% Inhibition,[2]; [10],88%
same,Number hatched,[2]; [11],0
same,Number unhatched,[2]; [11],138
same,% Inhibition,[2]; [11],100%
same,Number hatched,[3]; [12],39
same,Number unhatched,[3]; [12],0
same,% Inhibition,"[3]; 10 mM chelator followed by 2 second exposure to 1 mM FeSO4, relative to FeSO4 controls",0%
same,Number hatched,[3]; [13],25
same,Number unhatched,[3]; [13],0
same,% Inhibition,"[3]; 10 mM chelator followed by 2 second exposure to 5 mM FeSO4, relative to FeSO4 controls",0%
same,Number hatched,[3]; [14],23
same,Number unhatched,[3]; [14],2
same,% Inhibition,"[3]; 10 mM chelator followed by 2 second exposure to 10 mM FeSO4, relative to FeSO4 controls",8%
same,% Inhibition,[3]; [15],55%
same,Number hatched,[3]; [15],16
same,Number unhatched,[3]; [15],19
same,% Inhibition,[3]; [16],100%
same,Number hatched,[3]; [16],0
same,Number unhatched,[3]; [16],38
same,effect of added Fe in FeSO4 on the chelator's inhibition of egg hatching,"[3]; 10 mM chelator, then FeSO4 10, 5 or 1 mM",able to reverse the effects
same,inhibition of egg hatching after MeOH alone post exposure,"[3]; 10 mM chelator, then MeOH",significant degree of inhibition of egg hatching
same,egg hatching in the louse,[4]; 10 or 1 minute exposure,completely inhibited
same,Number hatched in different replicates,[4]; 1 minute exposure,Rep 1. 0; also recorded: Rep 2. 0
same,% Inhibition,[4]; 1 minute exposure,100%
same,Number unhatched,[4]; 1 minute exposure,10
same,Number hatched in different replicates,[4]; 10 minute exposure,Rep 2. 0; also recorded: Rep 1. 0
same,% Inhibition,[4]; 10 minute exposure,100%
same,Number unhatched,[4]; 10 minute exposure,10
same,mite populations on the treated filter papers,[5],small decline
same,Ovicidal activity %,[6]; 10 mM,100.00%
same,Activity class 0 = inactive 1 = low 2 = med 3 = high,[6]; listed as of 10 mM,3 (a pLD50 greater than 4 is considered strongly active (Class 3))
same,effect on egg hatching of Helicoverpa armigera (words),[7],significant inhibition of egg hatching
same,Number hatched,[7]; Table 13,0
same,Number unhatched,[7]; Table 13,42
same,% Inhibition,"[7]; Table 13, relative to the control (100% MeOH)",100%
